Source: patent US20140179681A1, “METHODS AND COMPOSITIONS OF TARGETED DRUG DEVELOPMENT” (priority 2010, published 2014)
Where a name gives a salt, the structure may show the parent alone. Read-outs that look alike come from different tables or passages of the source.

Key:
MDBK line = test: MTT Cell Proliferation Assay, MDBK cells; format: cell-based, bovine; conditions: MDBK cells; for IC50: Bos taurus, MDBK
From the text: (§1) The following example describes the MTT Cell Proliferation Assay.
(§2) The MTT Cell Proliferation Assay is a colorimetric assay system that measures the reduction of the tetrazolium salt MTT (3-(4,5-dimethylthiazol-2-yl)-2,5-diphenyltetrazolium bromide) into insoluble formazan crystals, produced by the mitochondria of viable cells. […] The color can then be quantified by spectrophotometric means. Among the applications for the method are drug sensitivity, cytotoxicity, response to growth factors, and cell activation. The reduction of tetrazolium salts is now recognized as a safe, accurate alternative to radiometric testing.
(§3) Two replicates on each cell plate and 2 duplicate plates gave 4 individual replicates of each concentration, in each cell line. Concentrations were diluted in 100% DMSO from 25 mM stocks.
(§4) Twelve 96 well plates of each cell line were plated. Plating was done by dislodging cells as in passage protocol, counting on a hemocytometer, re-suspending in standard growth media, and plating using a multichannel pippetor.
(§5) 16 μl of 25 mM stock+34 μl DMSO=8 mM starting concentrations, and serial diluted as with test compounds in same plate. […] Two replicates of each concentrations was run on each cell plate. All compound addition and cell treatments were done using aseptic technique under a laminar flow aseptic hood.
(§6) Control: 0.5% DMSO in treatment media was used as the control.
(§7) MTT dye (Thiazolyl Blue Tetrazolium Bromide, Sigma cat #M5655) stock was prepared in bulk and stored at 4° C. for use: 5 mgs/ml sterile PDS, shielded from light. 4 ul of this stock per 100 uls treatment media per well was used.
(§8) Plates were incubated overnight prior to treatment, with treatment day=Day 0. Compound treatments were prepared prior to washing cells to minimize time cells were dry at room temperature after final aspiration. Compounds were diluted in 100% DMSO in 96 well polypropylene plates: 40 μl 25 mM stock+10 μl DMSO=20 mM; 20 μl of 20 mM+30 μl DMSO=8 mM; 20 μl of 8 mM+30 μl DMSO=3.2 mM; 20 μl of 3.2 mM+30 μl DMSO=1.3 mM; 20 μl of 1.3 mM+30 μl DMSO=0.51 mM.
(§9) 5.0 μl/ml were added to treatment media, in sterile, 2.2 ml deep well plates=0.5% dmso final. Ten μl of each dmso concentration was added to 2.0 ml of treatment media and then mixed using a 1200 μl multichannel pipettor. Cell plates were treated from the deep well plates. Treatment media was standard growth media containing 0.5% FBS and standard additions. This reduced FBS concentration allowed for a slower growth rate in cells.
(§10) Media was aspirated from cell plates, and washed with 200 μl/well sterile PBS. Aspirated PBS wash, and cell plates were treated with 200 μl of compound/treatment media per well, and incubated at 37° C., 5% CO2 for 3 days.
(§11) Prior to harvesting, visual observations were made under an inverted microscope. Plates were harvested by: aspirating the growth media; adding back MTT dye/100 μl treatment media; and incubating plates at 37° C. for 1 hour. MTT dye was aspirated. 100 μl/well dmso was added, and then shaken on a Bellco plate shaker for 5 minutes, at 4.5 setting.
(§12) Plates were read in a Tecan Sunrize UV plate reader, at 560 nm. Settings: Read mode, Outside Normal 2 sec; Shake settle time 3 sec. Data is reported as % inhibition, calculated for individual plates using control values from that plate.

EGFR = molecular target: T1, EGFR (Homo sapiens, UniProt P00533); test: EGFR in-cell Western (ICW) screening protocol (EGFR inhibition assay); format: cell-based; parameters: ICW 1 / ICW 2 / ICW Avg: unit not given here; conditions: ICW assay; for ICW Avg: average of runs 1 and 2; for ICW 1: run 1; for ICW 2: run 2
T1 construct: host or cells: A431
T1 sequence (P00533 25-1210): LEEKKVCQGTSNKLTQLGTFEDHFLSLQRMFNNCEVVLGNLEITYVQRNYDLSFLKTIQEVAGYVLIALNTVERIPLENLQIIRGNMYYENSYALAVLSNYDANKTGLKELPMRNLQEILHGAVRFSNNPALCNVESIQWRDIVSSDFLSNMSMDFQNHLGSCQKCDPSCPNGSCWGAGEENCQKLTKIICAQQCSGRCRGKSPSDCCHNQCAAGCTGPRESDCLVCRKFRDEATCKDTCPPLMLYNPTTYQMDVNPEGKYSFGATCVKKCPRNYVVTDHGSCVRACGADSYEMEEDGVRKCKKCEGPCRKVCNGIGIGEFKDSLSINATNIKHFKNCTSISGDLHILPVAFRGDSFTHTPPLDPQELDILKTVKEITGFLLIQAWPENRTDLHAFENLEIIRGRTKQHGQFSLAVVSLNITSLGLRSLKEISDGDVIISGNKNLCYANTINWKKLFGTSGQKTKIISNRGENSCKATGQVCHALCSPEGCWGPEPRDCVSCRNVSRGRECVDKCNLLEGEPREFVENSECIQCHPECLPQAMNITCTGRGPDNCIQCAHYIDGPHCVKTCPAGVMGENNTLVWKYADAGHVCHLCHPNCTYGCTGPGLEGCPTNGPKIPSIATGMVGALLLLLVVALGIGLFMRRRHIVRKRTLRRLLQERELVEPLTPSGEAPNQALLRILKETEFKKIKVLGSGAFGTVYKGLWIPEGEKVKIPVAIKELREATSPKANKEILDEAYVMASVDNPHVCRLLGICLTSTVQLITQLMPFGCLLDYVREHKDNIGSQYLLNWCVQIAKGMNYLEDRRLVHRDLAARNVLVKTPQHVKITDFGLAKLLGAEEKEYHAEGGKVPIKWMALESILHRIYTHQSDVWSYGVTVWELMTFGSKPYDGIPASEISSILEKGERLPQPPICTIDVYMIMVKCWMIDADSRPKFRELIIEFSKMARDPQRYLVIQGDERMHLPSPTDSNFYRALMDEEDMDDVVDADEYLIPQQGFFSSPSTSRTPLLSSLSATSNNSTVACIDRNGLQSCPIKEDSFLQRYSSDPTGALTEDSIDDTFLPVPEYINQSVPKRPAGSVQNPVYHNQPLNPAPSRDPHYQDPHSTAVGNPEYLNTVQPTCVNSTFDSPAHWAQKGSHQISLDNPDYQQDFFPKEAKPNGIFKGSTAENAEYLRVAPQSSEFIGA
In short: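 Serum-starved A431 cells (2 h) were pretreated with compound for 4 h at 37° C, then stimulated with EGF (10 ng/ml final, or 6.6 or 12.5 ng/ml in some runs) for 10 min. After formaldehyde fixation, phospho-EGFR (Tyr1173, or Tyr1045 in some runs) and total EGFR were detected by in-cell Western immunostaining.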

[1] = system: epithelial carcinoma A431 cell line; test: MTT Cell Proliferation Assay, A431 cells; format: cell-based; conditions: for MTT Assay IC50(A431/MDBK): ratio in parentheses: ratio MDBK IC50 / A431 IC50 (selectivity)
From the text: as §1, §2, §3, §4, §5, §6, §7, §8, §9, §10, §11, §12

[2] = second value of cell, read-out: MTT Assay IC50(A431/MDBK): MDBK
[3] = Homo sapiens, A-431, A431 cells, first value of cell, read-out: MTT Assay IC50(A431/MDBK): A431

| ICW Avg (EGFR) | ICW 1 (EGFR) | ICW 2 (EGFR) | IC50 [1, 3] | MTT Assay IC50(A431/MDBK): ratio in parentheses [1] | MTT Assay IC50(A431/MDBK): MDBK (MDBK line; second value of cell) | IC50 ([1]; Homo sapiens, A-431, follow-up MTT, A431 cells, first value, read-out: MTT Follow-up: A431) | IC50 ([1]; A431 cells, first value of cell, read-out: MTT Assay IC50(A431/MDBK): A431) | SMILES | IC50 (MDBK line; [2]) | IC50 (MDBK line; follow-up MTT, second value, read-out: MTT Follow-up: MDBK) | MTT Follow-up: ratio in parentheses ([1]; follow-up MTT, ratio MDBK/A431) |
| --- | --- | --- | --- | --- | --- | --- | --- | --- | --- | --- | --- |
| 35.54 | 41.06 | 30.01 | 10.3 µM | 0.88 | – | 24.8 µM | – | Cc1ccc2nc(Nc3nc(-c4ccccc4C)cc(=O)[nH]3)nc(C)c2c1 [11785 + TFA] | 9.15 µM | 25.9 µM | 1.04 |
| 33.52 | 35.23 | 31.81 | 26.8 µM | 0.48 | – | – | – | Cc1ccc2nc(Nc3nc(CCC(C)C)cc(=O)[nH]3)nc(C)c2c1 [11795 + TFA] | 12.9 µM | – | – |
| 33.14 | 34.26 | 32.02 | 6.71 µM | 0.87 | – | – | – | COc1ccc(-c2cc(=O)[nH]c(Nc3nc(C)c4ccc(C)cc4n3)n2)cc1OC [11800 + TFA] | 5.86 µM | – | – |
| 25.37 | 30.73 | 20.02 | 5.31 µM | 3.35 | – | – | – | CC1(C)CC(=O)c2cnc(Nc3nc(-c4ccccc4)c4cc(Cl)ccc4n3)nc2C1 [11807 + TFA] | 17.8 µM | – | – |
| 32.72 | 31.42 | 34.02 | 39.3 µM | 0.28 | – | – | – | CCc1c(C)[nH]c(Nc2nc(C)c3cc(C)c(C)cc3n2)nc1=O [11809 + TFA] | 10.9 µM | – | – |
| 26.67 | 39.76 | 13.58 | 14.2 µM | 1.99 | – | – | – | Cc1ccc2nc(Nc3nc(C)cc(C(F)(F)F)n3)nc(C)c2c1 [11816 + TFA] | 28.1 µM | – | – |
| 37.16 | 40.52 | 33.80 | 49.4 µM | 0.88 | – | – | – | Cc1ccc2nc(Nc3nc(=O)cc(CSc4ccc(Cl)cc4)[nH]3)nc(C)c2c1 [11826 + TFA] | 43.3 µM | – | – |
| 34.91 | 42.29 | 27.52 | 32.4 µM | 1.40 | – | – | – | CCCCCC1C(=O)N=C(Nc2nc(C)c3ccc(CC)cc3n2)N=C1C (stereo not shown) [12214 + TFA] | 45.5 µM | – | – |
| 38.74 | 42.24 | 35.23 | 42.5 µM | 1.15 | – | – | – | CCCCCc1c(C)nc(Nc2nc(C)c3cc(CC)ccc3n2)[nH]c1=O [12226 + TFA] | 49 µM | – | – |
| 25.97 | 16.57 | 35.37 | 19.2 µM | 1.08 | – | – | – | Cc1nc(Nc2nc3c(c(-c4ccccc4)n2)CCCC3)nc2c(C)cccc12 [12229 + TFA] | 20.9 µM | – | – |
| 38.61 | 48.06 | 29.15 | – | 0.62 | – | – | 16.2 µM | CCCCc1c(C)nc(Nc2nc(C)c3ccccc3n2)[nH]c1=O [12603 + TFA] | 10.1 µM | – | – |
| 50.98 | 55.87 | 46.08 | 19.3 µM | 1.55 | – | – | – | Cc1ccc(-c2cc(=O)[nH]c(Nc3nc(C)c4ccc(C)cc4n3)n2)cc1 [12604 + TFA] | 30 µM | – | – |
| 32.62 | 38.40 | 26.85 | 16.6 µM | 0.71 | – | – | – | C=CCc1c(C)nc(Nc2nc(C)c3cccc(C)c3n2)[nH]c1=O [12607 + TFA] | 11.8 µM | – | – |
| 42.36 | 46.64 | 38.07 | 43.1 µM | – | – | – | – | CCOc1ccc2nc(Nc3nc(=O)cc(-c4ccccc4)[nH]3)nc(C)c2c1 [12608 + TFA] | 17 µM | – | – |

Second part, the molecule before the results:

| SMILES | ICW Avg (EGFR) | ICW 1 (EGFR) | ICW 2 (EGFR) | IC50 [1, 3] | MTT Assay IC50(A431/MDBK): ratio in parentheses [1] | MTT Assay IC50(A431/MDBK): MDBK (MDBK line; second value of cell) | IC50 ([1]; Homo sapiens, A-431, follow-up MTT, A431 cells, first value, read-out: MTT Follow-up: A431) | IC50 ([1]; A431 cells, first value of cell, read-out: MTT Assay IC50(A431/MDBK): A431) | IC50 (MDBK line; [2]) | IC50 (MDBK line; follow-up MTT, second value, read-out: MTT Follow-up: MDBK) | MTT Follow-up: ratio in parentheses ([1]; follow-up MTT, ratio MDBK/A431) |
| --- | --- | --- | --- | --- | --- | --- | --- | --- | --- | --- | --- |
| Cc1ccc2c(C)nc(Nc3nc(C)c(CCC(C)C)c(=O)[nH]3)nc2c1 [11712 + TFA] | 39.53 | 32.96 | 46.11 | 18.7 µM | 0.92 | – | – | – | 17.3 µM | – | – |
| Cc1ccc(SCc2cc(=O)[nH]c(Nc3nc(C)c4cc(C)cc(C)c4n3)n2)cc1 [11727 + TFA] | 31.05 | 37.00 | 25.09 | 35.1 µM | 0.46 | – | – | – | 16.1 µM | – | – |
| CCCCCc1c(C)nc(Nc2nc(C)c3ccc(C)cc3n2)[nH]c1=O [11730 + TFA] | 38.91 | 47.15 | 30.67 | 14.5 µM | 0.69 | – | – | – | 10.1 µM | – | – |
| COc1ccc2nc(Nc3nc(C)c(Cc4cccc(Cl)c4)c(=O)[nH]3)nc(C)c2c1 [11742 + TFA] | 35.74 | 33.84 | 37.63 | 16.1 µM | – | non-convergent | – | – | – | – | – |
| COc1ccccc1-c1cc(=O)[nH]c(Nc2nc(C)c3cc(C)c(C)cc3n2)n1 [11746 + TFA] | 25.68 | 29.51 | 21.86 | 33.5 µM | 0.43 | – | – | – | 14.4 µM | – | – |
| Cc1cccc(Cc2c(C)nc(Nc3nc(C)c4cccc(C)c4n3)[nH]c2=O)c1 [11754 + TFA] | 29.97 | 34.09 | 25.85 | 5.58 µM | 1.35 | – | – | – | 7.55 µM | – | – |
| O=c1cc(C(F)(F)F)[nH]c(Nc2nc(-c3ccccc3)c3cc(Cl)ccc3n2)n1 [11759 + TFA] | 32.41 | 38.43 | 26.39 | 14.2 µM | 0.52 | – | – | – | 7.36 µM | – | – |
| CCc1ccc2c(C)nc(Nc3nc(C)c(CCC(C)C)c(=O)[nH]3)nc2c1 [11771 + TFA] | 46.95 | 51.58 | 42.32 | 18.2 µM | 2.32 | – | – | – | 42.1 µM | – | – |
| COc1cccc2c(C)nc(Nc3nc(C)cc(=O)[nH]3)nc12 [11772 + TFA] | 77.09 | 80.68 | 73.50 | 9.75 µM | 0.93 | – | – | – | 9.04 µM | – | – |
| CCCc1c(C)nc(Nc2nc(C)c3cccc(OC)c3n2)[nH]c1=O [11773 + TFA] | 33.52 | 43.74 | 23.30 | 39.4 µM | 0.53 | – | – | – | 21 µM | – | – |
| Cc1ccc2c(C)nc(Nc3nc(CCC(C)C)cc(=O)[nH]3)nc2c1 [11783 + TFA] | 60.19 | 66.95 | 53.44 | 18.2 µM | 0.82 | – | – | – | 15 µM | – | – |
